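Step 1: Grow cells in 96-well plates. Step 2: Expose to compound for 48 hours at 5 concentrations. Step 3: Interpolate endpoints linearly; if unreached, use highest concentration. Abbreviation: GI50, concentration required for 50% inhibition of growth.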 The source made the active and inactive calls. Rule as the data show it: active = GI50 up to about 1.1 µM and inactive = higher.
Experiments:
Assay in all cases: growth of human tumour cells (NCI), 48 h
RXF 393 = system: RXF 393
UACC-62 = system: UACC-62
COLO 205 = system: COLO 205
MDA-MB-231 = system: MDA-MB-231
SK-MEL-2 = system: SK-MEL-2
ACHN = system: ACHN
DU-145 = system: DU-145
CAKI-1 = system: CAKI-1
NCI/ADR-RES = system: NCI/ADR-RES
RPMI-8226 = system: RPMI-8226
SF-268 = system: SF-268
KM12 = system: KM12
MDA-MB-435 = system: MDA-MB-435
M14 = system: M14
SK-MEL-5 = system: SK-MEL-5
T47D = system: T47D
HL-60 = system: HL-60
IGROV-1 = system: IGROV-1
786-0 = system: 786-0
EKVX = system: EKVX
A498 = system: A498
LOX IMVI = system: LOX IMVI
NCI-H460 = system: NCI-H460
UO-31 = system: UO-31
HCC 2998 = system: HCC 2998
A549 = system: A549
SK-MEL-28 = system: SK-MEL-28
SR = system: SR
U-251 = system: U-251
K562 = system: K562
CCRF-CEM = system: CCRF-CEM
SF-295 = system: SF-295
OVCAR-8 = system: OVCAR-8
Hs-578T = system: Hs-578T
TK-10 = system: TK-10
NCI-H522 = system: NCI-H522
SN12C = system: SN12C
MDA-N = system: MDA-N
MCF7 = system: MCF7
BT-549 = system: BT-549
SNB-19 = system: SNB-19
HT-29 = system: HT-29
SW-620 = system: SW-620
HOP-62 = system: HOP-62
HCT-116 = system: HCT-116
PC-3 = system: PC-3
NCI-H226 = system: NCI-H226
OVCAR-4 = system: OVCAR-4
HOP-92 = system: HOP-92
Malme-3M = system: Malme-3M
MOLT-4 = system: MOLT-4
OVCAR-5 = system: OVCAR-5
SK-OV-3 = system: SK-OV-3
OVCAR-3 = system: OVCAR-3
UACC-257 = system: UACC-257
SNB-75 = system: SNB-75
NCI-H23 = system: NCI-H23
HCT-15 = system: HCT-15
SF-539 = system: SF-539

Measured: GI50

NC(=O)c1cc2cc(Cl)cc(Cl)c2o/c1=N\c1ccc(F)cc1
inactive: RXF 393 16.8 µM | UACC-62 23.3 µM | COLO 205 17.5 µM | MDA-MB-231 17.5 µM | SK-MEL-2 16.3 µM | ACHN 19.5 µM | DU-145 19 µM | CAKI-1 18.1 µM | NCI/ADR-RES 16 µM | RPMI-8226 26.5 µM | SF-268 32.4 µM | KM12 26.5 µM | MDA-MB-435 20 µM | M14 20.3 µM | SK-MEL-5 16.9 µM | T47D 18.3 µM | HL-60 64.1 µM | IGROV-1 26.4 µM | 786-0 12.2 µM | EKVX 15.2 µM | A498 19.4 µM | LOX IMVI 27.6 µM | NCI-H460 17.1 µM | UO-31 25.8 µM | HCC 2998 21.1 µM | A549 19.3 µM | SK-MEL-28 21.9 µM | SR 4.08 µM | U-251 19.6 µM | K562 7.11 µM | CCRF-CEM 56.8 µM | SF-295 18.5 µM | OVCAR-8 37.6 µM | Hs-578T 35.1 µM | TK-10 14.3 µM | NCI-H522 17.7 µM | SN12C 16.7 µM | MDA-N 22.4 µM | MCF7 19.8 µM | BT-549 18.6 µM | SNB-19 16.9 µM | HT-29 29.6 µM | SW-620 30.3 µM | HOP-62 27.6 µM | HCT-116 17.3 µM | PC-3 19.1 µM | NCI-H226 18.6 µM | OVCAR-4 23.8 µM | HOP-92 31.9 µM | Malme-3M 21 µM | MOLT-4 12.5 µM | OVCAR-5 19.6 µM | SK-OV-3 22.5 µM | OVCAR-3 21.2 µM | UACC-257 19.5 µM | SNB-75 14.8 µM | NCI-H23 14.7 µM
17.3 µM: HCT-15

COc1ccc2cc(NC(=O)N/N=C\c3ccc([N+](=O)[O-])cc3)ccc2c1
48 µM: HCT-15
inactive: RXF 393 20.4 µM | UACC-62 20.9 µM | COLO 205 > 100 µM | MDA-MB-231 37.4 µM | SK-MEL-2 60.3 µM | ACHN 37.6 µM | DU-145 > 100 µM | CAKI-1 43.6 µM | NCI/ADR-RES 23.8 µM | RPMI-8226 35.7 µM | SF-268 20.1 µM | KM12 72.3 µM | MDA-MB-435 69 µM | M14 30.8 µM | SK-MEL-5 73.3 µM | T47D 49.1 µM | HL-60 45 µM | IGROV-1 23.7 µM | 786-0 30.5 µM | EKVX 81.8 µM | A498 53 µM | LOX IMVI > 100 µM | NCI-H460 29.4 µM | UO-31 17.1 µM | HCC 2998 12.9 µM | A549 34.1 µM | SK-MEL-28 > 100 µM | SR > 100 µM | U-251 29.9 µM | K562 80.4 µM | CCRF-CEM > 100 µM | SF-295 25.9 µM | OVCAR-8 21.8 µM | Hs-578T 42.5 µM | NCI-H522 16 µM | SN12C 86.3 µM | MDA-N 79.3 µM | MCF7 29.9 µM | BT-549 27.2 µM | SNB-19 20.4 µM | HT-29 33.5 µM | SW-620 > 100 µM | HOP-62 19.5 µM | HCT-116 53.3 µM | PC-3 27.6 µM | NCI-H226 18.7 µM | OVCAR-4 1.91 µM | HOP-92 39.5 µM | Malme-3M 23.4 µM | MOLT-4 > 100 µM | OVCAR-5 45.9 µM | SK-OV-3 31 µM | OVCAR-3 40.5 µM | UACC-257 42.2 µM | SNB-75 21.3 µM | NCI-H23 22.9 µM

COC(=O)C1(C)CCCC2(C)c3cc(OC)ccc3C(=O)C(Br)C12 (stereo not given)
> 10 µM: HCT-15
inactive: RXF 393 9.23 µM | UACC-62 > 10 µM | COLO 205 2.63 µM | MDA-MB-231 3.35 µM | SK-MEL-2 > 10 µM | SF-539 > 10 µM | DU-145 > 10 µM | CAKI-1 4.05 µM | NCI/ADR-RES > 10 µM | RPMI-8226 2.24 µM | SF-268 > 10 µM | KM12 > 10 µM | MDA-MB-435 4.19 µM | M14 3.35 µM | SK-MEL-5 > 10 µM | T47D > 10 µM | HL-60 2.14 µM | IGROV-1 > 10 µM | 786-0 1.84 µM | EKVX > 10 µM | A498 > 10 µM | LOX IMVI > 10 µM | NCI-H460 > 10 µM | UO-31 1.84 µM | HCC 2998 > 10 µM | A549 > 10 µM | SK-MEL-28 > 10 µM | SR 2.76 µM | U-251 > 10 µM | K562 3.68 µM | CCRF-CEM 2.29 µM | SF-295 > 10 µM | OVCAR-8 1.99 µM | Hs-578T > 10 µM | TK-10 > 10 µM | NCI-H522 2.86 µM | SN12C 8.61 µM | MDA-N 3.81 µM | MCF7 1.95 µM | BT-549 > 10 µM | SNB-19 > 10 µM | HT-29 4.75 µM | SW-620 2.15 µM | HOP-62 > 10 µM | HCT-116 2.79 µM | PC-3 9.73 µM | NCI-H226 > 10 µM | HOP-92 > 10 µM | Malme-3M 2.72 µM | MOLT-4 1.75 µM | OVCAR-5 8.02 µM | SK-OV-3 > 10 µM | OVCAR-3 5.35 µM | UACC-257 > 10 µM | NCI-H23 > 10 µM

O=C(Cn1c(C(=O)/C=C/c2ccc(Cl)cc2)nc2ccccc21)c1ccc(Cl)cc1
inactive: RXF 393 15.5 µM | UACC-62 15.8 µM | COLO 205 16.5 µM | MDA-MB-231 19.9 µM | SK-MEL-2 17.6 µM | SF-539 18.3 µM | ACHN 20.7 µM | DU-145 21.7 µM | NCI/ADR-RES 20.5 µM | RPMI-8226 6.18 µM | SF-268 23.3 µM | KM12 7.26 µM | MDA-MB-435 17.1 µM | M14 18.1 µM | SK-MEL-5 14.8 µM | T47D 28.6 µM | HL-60 10.1 µM | IGROV-1 16.7 µM | 786-0 20.6 µM | EKVX 26.5 µM | A498 32.3 µM | LOX IMVI 16 µM | NCI-H460 10.9 µM | UO-31 19.8 µM | HCC 2998 14.4 µM | A549 21 µM | SK-MEL-28 21.7 µM | SR 4.25 µM | U-251 11.5 µM | K562 6.07 µM | CCRF-CEM 2.7 µM | Hs-578T 10.9 µM | TK-10 30.8 µM | SN12C 14.1 µM | MDA-N 20.7 µM | MCF7 15.2 µM | BT-549 24.5 µM | SNB-19 20.7 µM | HT-29 15 µM | SW-620 11.4 µM | HOP-62 16.4 µM | HCT-116 10.9 µM | PC-3 22.5 µM | NCI-H226 21.4 µM | OVCAR-4 13.4 µM | HOP-92 34.3 µM | Malme-3M 20.9 µM | MOLT-4 2.26 µM | OVCAR-5 26.8 µM | SK-OV-3 26.9 µM | OVCAR-3 8.87 µM | UACC-257 24.1 µM | NCI-H23 19.5 µM
15.3 µM: HCT-15

Source: ChEMBL document CHEMBL1201862, “PubChem BioAssay data set” (2004)
